The target of this assay is T1, human amylin receptor (Homo sapiens, UniProt O60896+P30988).
T1 construct: host or cells: CHO-K1/Ga15/AMY3 cells, further stably transfected with a CRE-luciferase plasmid
T1 sequence (P30988 25-474): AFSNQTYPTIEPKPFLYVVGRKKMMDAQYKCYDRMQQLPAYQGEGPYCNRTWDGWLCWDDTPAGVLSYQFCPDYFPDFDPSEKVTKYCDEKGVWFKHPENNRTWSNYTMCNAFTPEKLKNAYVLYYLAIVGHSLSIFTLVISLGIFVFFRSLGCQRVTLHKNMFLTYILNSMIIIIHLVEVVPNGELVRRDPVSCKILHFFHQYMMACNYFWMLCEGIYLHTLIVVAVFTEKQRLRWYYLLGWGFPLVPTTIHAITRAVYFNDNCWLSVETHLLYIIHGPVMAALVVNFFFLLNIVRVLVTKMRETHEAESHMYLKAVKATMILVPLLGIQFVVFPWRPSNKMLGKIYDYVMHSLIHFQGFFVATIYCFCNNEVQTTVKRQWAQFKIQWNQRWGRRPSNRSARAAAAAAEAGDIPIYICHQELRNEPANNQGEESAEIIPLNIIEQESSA
T1 sequence (O60896 24-148 partner): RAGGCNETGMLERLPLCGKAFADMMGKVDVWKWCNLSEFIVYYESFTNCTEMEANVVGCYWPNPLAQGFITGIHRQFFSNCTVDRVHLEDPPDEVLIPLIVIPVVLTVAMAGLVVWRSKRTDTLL
Description: Luciferase assay of amylin derivatives in amylin receptor/CRE-luc CHO cell line. In kind it is cell-based. The settings on record: CHO-K1/Ga15/AMY3 CRE-luc cells, 24 hours incubation, F12 medium containing 10% FBS; read-out: EC50.

Numbered stars: 1 amine (or outer) side, 2 acyl side, 3 side chain; on linkers, the order of the positions; unused ones are H or OH. Bridge positions count the residues as written; N and C are the ends. Square brackets hold non-standard residues; d marks the D form. Side chains are listed from the residue outwards. Peptide text beside a SMILES is read from it. * marks the point of attachment. C20 diacid = O=C(O)CCCCCCCCCCCCCCCCCCC(=O)*; C18 diacid = O=C(O)CCCCCCCCCCCCCCCCC(=O)*; γGlu = O=C(O)[C@H](CCC(=O)[*:2])N[*:1]; Hyp = O=C(O)[C@@H]1C[C@@H](O)CN1; Cit = NC(=O)NCCC[C@H](N)C(=O)O; AEEA = NCCOCCOCC(=O)O

Description: The experiment was intended to detect the activity or efficacy of the amylin derivatives on a human amylin receptor in vitro by luciferase assay.
50 μL of growth medium (F12 medium containing 10% FBS) was added into each well of a white 96-well plate, and the stably transfected amylin/CRE-lue CHO cells were inoculated into the white 96-well plate at a density of about 20,000 cells/well for activity determination.

A word on the EC50: it is the concentration at which the effect is half-maximal. Turning to `CC[C@H](C)[C@H](NC(=O)[C@@H]1CCCN1C(=O)[C@H](CCCNC(N)=O)NC(=O)[C@H](CC(C)C)NC(=O)[C@H](CC(N)=O)NC(=O)[C@H](CC(N)=O)NC(=O)[C@H](CO)NC(=O)[C@H](CO)NC(=O)[C@H](Cc1c[nH]cn1)NC(=O)[C@H](CCCNC(=N)N)NC(=O)[C@H](CC(C)C)NC(=O)[C@H](Cc1ccccc1)NC(=O)[C@H](CC(=O)O)NC(=O)[C@H](C)NC(=O)[C@H](CC(C)C)NC(=O)[C@H](CCCNC(=N)N)NC(=O)[C@H](CCC(N)=O)NC(=O)[C@@H](NC(=O)[C@H](C)NC(=O)[C@@H]1CSSC[C@H](NC(=O)[C@H](CCCCN)NC(=O)CC[C@H](NC(=O)CCCCCCCCCCCCCCCCCCC(=O)O)C(=O)O)C(=O)N[C@@H](CC(N)=O)C(=O)N[C@@H]([C@@H](C)O)C(=O)N[C@@H](C)C(=O)N[C@@H]([C@@H](C)O)C(=O)N1)[C@@H](C)O)C(=O)N[C@@H](CC(C)C)C(=O)N1CCC[C@H]1C(=O)N1CCC[C@H]1C(=O)N[C@H](C(=O)N[C@@H](CC(N)=O)C(=O)N[C@H](C(=O)NCC(=O)N[C@@H](CO)C(=O)N[C@@H](CC(N)=O)C(=O)N[C@H](C(=O)N1CCC[C@H]1C(N)=O)[C@@H](C)O)C(C)C)[C@@H](C)O` [PD171] ({C20 diacid-γGlu}-KCNTATCATQRLADFLRHSSNNL[Cit]PILPPTNVGSNTP-NH2; disulfide 2-7 (inferred)), the EC50 came out at 0.053 nM.
With `CC[C@H](C)[C@H](NC(=O)[C@@H]1CCCN1C(=O)CNC(=O)[C@H](CC(C)C)NC(=O)[C@H](CCCCNC(=O)COCCOCCNC(=O)COCCOCCNC(=O)CC[C@H](NC(=O)CCCCCCCCCCCCCCCCC(=O)O)C(=O)O)NC(=O)[C@H](CC(N)=O)NC(=O)[C@H](CO)NC(=O)[C@H](CO)NC(=O)[C@H](Cc1c[nH]cn1)NC(=O)[C@H](CCCNC(=N)N)NC(=O)[C@H](CC(C)C)NC(=O)[C@H](Cc1ccccc1)NC(=O)[C@H](CC(=O)O)NC(=O)[C@H](C)NC(=O)[C@H](CC(C)C)NC(=O)[C@H](CCCNC(=N)N)NC(=O)[C@H](CCC(N)=O)NC(=O)[C@@H](NC(=O)[C@H](C)NC(=O)[C@@H]1CSSC[C@H](NC(=O)[C@@H](N)CCCNC(=N)N)C(=O)N[C@@H](CC(N)=O)C(=O)N[C@@H]([C@@H](C)O)C(=O)N[C@@H](C)C(=O)N[C@@H]([C@@H](C)O)C(=O)N1)[C@@H](C)O)C(=O)N[C@@H](CC(C)C)C(=O)N1CCC[C@H]1C(=O)N1CCC[C@H]1C(=O)N[C@H](C(=O)N[C@@H](CC(N)=O)C(=O)N[C@H](C(=O)NCC(=O)N[C@@H](CO)C(=O)N[C@@H](CC(N)=O)C(=O)N[C@H](C(=O)N1C[C@H](O)C[C@H]1C(N)=O)[C@@H](C)O)C(C)C)[C@@H](C)O` [PD089] (H-RCNTATCATQRLADFLRHSSNK([AEEA-AEEA-γGlu-C18 diacid])LGPILPPTNVGSNT[Hyp]-NH2; disulfide 2-7) the figure was 0.018 nM; with `CC[C@H](C)[C@H](NC(=O)[C@@H]1CCCN1C(=O)CNC(=O)[C@H](CCCCNC(=O)COCCOCCNC(=O)COCCOCCNC(=O)CC[C@H](NC(=O)CCCCCCCCCCCCCCCCC(=O)O)C(=O)O)NC(=O)[C@H](CC(N)=O)NC(=O)[C@H](CC(N)=O)NC(=O)[C@H](CO)NC(=O)[C@H](CO)NC(=O)[C@H](Cc1c[nH]cn1)NC(=O)[C@H](CCCNC(=N)N)NC(=O)[C@H](CC(C)C)NC(=O)[C@H](Cc1ccccc1)NC(=O)[C@H](CC(=O)O)NC(=O)[C@H](C)NC(=O)[C@H](CC(C)C)NC(=O)[C@H](CCCNC(=N)N)NC(=O)[C@H](CCC(N)=O)NC(=O)[C@@H](NC(=O)[C@H](C)NC(=O)[C@@H]1CSSC[C@H](NC(=O)[C@@H](N)CCCNC(=N)N)C(=O)N[C@@H](CC(N)=O)C(=O)N[C@@H]([C@@H](C)O)C(=O)N[C@@H](C)C(=O)N[C@@H]([C@@H](C)O)C(=O)N1)[C@@H](C)O)C(=O)N[C@@H](CC(C)C)C(=O)N1CCC[C@H]1C(=O)N1CCC[C@H]1C(=O)N[C@H](C(=O)N[C@@H](CC(N)=O)C(=O)N[C@H](C(=O)NCC(=O)N[C@@H](CO)C(=O)N[C@@H](CC(N)=O)C(=O)N[C@H](C(=O)N1C[C@H](O)C[C@H]1C(N)=O)[C@@H](C)O)C(C)C)[C@@H](C)O` [PD085] (H-RCNTATCATQRLADFLRHSSNNK([AEEA-AEEA-γGlu-C18 diacid])GPILPPTNVGSNT[Hyp]-NH2; disulfide 2-7), 0.005 nM; with `CC[C@H](C)[C@H](NC(=O)[C@@H]1CCCN1C(=O)CNC(=O)[C@H](Cc1ccccc1)NC(=O)[C@H](CC(N)=O)NC(=O)[C@H](CC(N)=O)NC(=O)[C@H](CO)NC(=O)[C@H](CO)NC(=O)[C@H](Cc1c[nH]cn1)NC(=O)[C@H](CCCNC(=N)N)NC(=O)[C@H](CC(C)C)NC(=O)[C@H](Cc1ccccc1)NC(=O)[C@H](CC(=O)O)NC(=O)[C@H](C)NC(=O)[C@H](CC(C)C)NC(=O)[C@H](CCCNC(=N)N)NC(=O)[C@H](CCC(N)=O)NC(=O)[C@@H](NC(=O)[C@H](C)NC(=O)[C@@H]1CSSC[C@H](NC(=O)[C@@H](N)CCCCNC(=O)CC[C@H](NC(=O)CCCCCCCCCCCCCCCCCCC(=O)O)C(=O)O)C(=O)N[C@@H](CC(N)=O)C(=O)N[C@@H]([C@@H](C)O)C(=O)N[C@@H](C)C(=O)N[C@@H]([C@@H](C)O)C(=O)N1)[C@@H](C)O)C(=O)N[C@@H](CC(C)C)C(=O)N1CCC[C@H]1C(=O)N1CCC[C@H]1C(=O)N[C@H](C(=O)N[C@@H](CC(N)=O)C(=O)N[C@H](C(=O)NCC(=O)N[C@@H](CO)C(=O)N[C@@H](CC(N)=O)C(=O)N[C@H](C(=O)N1C[C@H](O)C[C@H]1C(N)=O)[C@@H](C)O)C(C)C)[C@@H](C)O` [PD068] (H-K([γGlu-C20 diacid])CNTATCATQRLADFLRHSSNNFGPILPPTNVGSNT[Hyp]-NH2; disulfide 2-7), 0.032 nM.
With `CC[C@H](C)[C@H](NC(=O)[C@@H]1CCCN1C(=O)[C@H](CCCCNC(=O)CC[C@H](NC(=O)CCCCCCCCCCCCCCCCC(=O)O)C(=O)O)NC(=O)[C@H](CC(C)C)NC(=O)[C@H](CC(N)=O)NC(=O)[C@H](CC(N)=O)NC(=O)[C@H](CO)NC(=O)[C@H](CO)NC(=O)[C@H](Cc1c[nH]cn1)NC(=O)[C@H](CCCNC(=N)N)NC(=O)[C@H](CC(C)C)NC(=O)[C@H](Cc1ccccc1)NC(=O)[C@H](CC(=O)O)NC(=O)[C@H](C)NC(=O)[C@H](CC(C)C)NC(=O)[C@H](CCCNC(=N)N)NC(=O)[C@H](CCC(N)=O)NC(=O)[C@@H](NC(=O)[C@H](C)NC(=O)[C@@H]1CSSC[C@H](NC(=O)[C@@H](N)CCCNC(=N)N)C(=O)N[C@@H](CC(N)=O)C(=O)N[C@@H]([C@@H](C)O)C(=O)N[C@@H](C)C(=O)N[C@@H]([C@@H](C)O)C(=O)N1)[C@@H](C)O)C(=O)N[C@@H](CC(C)C)C(=O)N1CCC[C@H]1C(=O)N1CCC[C@H]1C(=O)N[C@H](C(=O)N[C@@H](CC(N)=O)C(=O)N[C@H](C(=O)NCC(=O)N[C@@H](CO)C(=O)N[C@@H](CC(N)=O)C(=O)N[C@H](C(=O)N1C[C@H](O)C[C@H]1C(N)=O)[C@@H](C)O)C(C)C)[C@@H](C)O` [PD107] (H-RCNTATCATQRLADFLRHSSNNLK([γGlu-C18 diacid])PILPPTNVGSNT[Hyp]-NH2; disulfide 2-7), the EC50 turned out to be 0.027 nM.

Values taken from patent US20260166128A1, “HUMAN AMYLIN ANALOG, AND DERIVATIVE THEREOF AND USE THEREOF” (priority 2022, published 2026).
